Data as given in patent publication US20250092031A1, “RIPK3 INHIBITORS AND METHODS OF USE” (Momentum Therapeutics, Inc., priority 2023, published 2025).

Columns and labels:
Human HT-29 cells = experiment: Necroptosis inhibition assay in HT-29 cells (hTNFα + zVAD + SMAC mimetic, Sytox Green/Hoechst); assay type: cell-based; conditions: 10 ng/ml hTNFα, 20 μM zVAD and 100 nM SMAC mimetic, 6 hours, Sytox/Hoechst positive cells, read-out: HT29 necroptosis inhibition IC50
Description: Human HT-29 cells (ATCC-HTB-38) were seeded at 10,000 cells/well in a 96-well plate. Cells were treated 48 hours after seeding with 10 ng/ml hTNFα (R&D Systems), 20 μM zVAD (ChemShuttle) and 100 nM SMAC mimetic (MedChem Express) in the presence of different concentrations of compounds ranging from […] to 0.01 μM. Cells treated with 0.1% DMSO or cells treated with TNFα+zVAD+SMAC mimetic were used as control and vehicle respectively.
Assay plates containing cells were incubated for 6 hours at 37° C. and 5% CO2. Necroptosis was assessed using Sytox Green Nucleic Acid Stain (Invitrogen) and Hoechst staining. After incubation, 100 μL of Sytox dye at 2 μM (2×) diluted in HBSS 1× was added to each well. At the same time, Hoechst stain is added to a final concentration of 10 μM and incubated for 15 min at room temperature. Images were taken for Sytox and Hoechst using the Cytation 5 microplate reader with DAPI and GFP filter cubes (Biotek). Sytox and Hoechst positive cells were counted with CellProfiler software.
(§1) Percentage of necroptosis inhibition was calculated as the percent compared to control and vehicle conditions which correspond to 100% and 0% respectively. The half-maximum necroptosis inhibition (IC50) levels were calculated using GraphPad Prism software and are shown in Table 3 (NT represents compound not tested).

Murine L929 cells = experiment: Necroptosis inhibition assay in L929 cells (mTNFα + zVAD, Sytox Green); assay type: cell-based; conditions: Mus musculus, 10 ng/ml mTNFα and 20 μM zVAD, 6 hours, Sytox Green fluorescence
Description: Murine L929 cells (ATCC-CCL-1) were seeded at 10,000 cells/well in a 96-well plate. Cells were treated 48 hours after seeding with 10 ng/ml mTNFα (R&D Systems) and 20 μM zVAD (ChemShuttle) in the presence of different concentrations of compounds ranging from […] to 0.01 μM. Cells treated with 0.1% DMSO or cells treated with TNFα+zVAD were used as control and vehicle respectively.
Assay plates containing cells were incubated for 6 hours at 37° C. and 5% CO2. Necroptosis was assessed using Sytox Green Nucleic Acid Stain (Invitrogen). After incubation, 100 μL of Sytox dye at 2 μM (2×) diluted in HBSS 1× was added in each well and incubated for 15 min at room temperature. Fluorescence (500ex/530em) was recorded using the Cytation 5 microplate reader (Biotek).
as §1

SMILES | IC50 (Human HT-29 cells) | IC50 (Murine L929 cells)
O=C(c1ccc(-c2ccc3c(Nc4ccc5scnc5c4)ccnc3c2)c(F)c1)N1CCNCC1 [Compound 250, (4-(4-(benzo[d]thiazol-5-ylamino)quinolin-7-yl)-3-fluorophenyl)(piperazin-1-yl)methanone] | 2.53 µM | 0.344 µM
O=C(c1ccc(-c2ccc3nccc(Nc4ccc5scnc5c4)c3c2)c(F)c1)N1CC2(CCOCC2)C1 [Compound 251, (4-(4-(benzo[d]thiazol-5-ylamino)quinolin-6-yl)-3-fluorophenyl)(7-oxa-2-azaspiro[3.5]nonan-2-yl)methanone] | 0.823 µM | 0.582 µM
O=C(c1ccc(-c2ccc3c(Nc4ccc5scnc5c4)ccnc3c2)c(F)c1)N1CC2(CCOCC2)C1 [Compound 252, (4-(4-(benzo[d]thiazol-5-ylamino)quinolin-7-yl)-3-fluorophenyl)(7-oxa-2-azaspiro[3.5]nonan-2-yl)methanone] | 0.244 µM | 0.26 µM
c1cc(Nc2ccc3scnc3c2)c2ccc(-c3ccc(C4CCNCC4)cc3)cc2n1 [Compound 253, N-(7-(4-(piperidin-4-yl)phenyl)quinolin-4-yl)benzo[d]thiazol-5-amine] | 0.755 µM | 0.271 µM
CN1CCN(C(=O)c2ccc(-c3ccc4nccc(Nc5ccc6scnc6c5)c4c3)c(F)c2)CC1=O [Compound 273, 4-(4-(4-(benzo[d]thiazol-5-ylamino)quinolin-6-yl)-3-fluorobenzoyl)-1-methylpiperazin-2-one] | 0.78 µM | 1.1 µM
CN1CCN(C(=O)c2ccc(-c3ccc4c(Nc5ccc6scnc6c5)ccnc4c3)c(F)c2)CC1=O [Compound 274, 4-(4-(4-(benzo[d]thiazol-5-ylamino)quinolin-7-yl)-3-fluorobenzoyl)-1-methylpiperazin-2-one] | 1.19 µM | 0.515 µM
O=C1CN(C(=O)c2ccc(-c3ccc4nccc(Nc5ccc6scnc6c5)c4c3)c(F)c2)CCN1 [Compound 275, 4-(4-(4-(benzo[d]thiazol-5-ylamino)quinolin-6-yl)-3-fluorobenzoyl)piperazin-2-one] | 0.689 µM | 3.82 µM
CC1CN(C(=O)c2ccc(-c3ccc4nccc(Nc5ccc6scnc6c5)c4c3)c(F)c2)CCN1 (centres unmarked) [Compound 286, (4-(4-(benzo[d]thiazol-5-ylamino)quinolin-6-yl)-3-fluorophenyl)(3-methylpiperazin-1-yl)methanone] | 0.0758 µM | 0.853 µM
Fc1cc(CN2CCC3(CCNCC3)CC2)ccc1-c1ccc2nccc(Nc3ccc4scnc4c3)c2c1 [Compound 290, N-(6-(4-((3,9-diazaspiro[5.5]undecan-3-yl)methyl)-2-fluorophenyl)quinolin-4-yl)benzo[d]thiazol-5-amine] | < 1 µM | < 10 µM
Fc1cc(CN2CCC3(CCNCC3)CC2)ccc1-c1ccc2c(Nc3ccc4scnc4c3)ccnc2c1 [Compound 291, N-(7-(4-((3,9-diazaspiro[5.5]undecan-3-yl)methyl)-2-fluorophenyl)quinolin-4-yl)benzo[d]thiazol-5-amine] | < 1 µM | < 10 µM
C[C@@H]1CN(C(=O)c2ccc(-c3ccc4nccc(Nc5ccc6scnc6c5)c4c3)c(F)c2)C[C@H](C)N1 [Compound 293, (4-(4-(benzo[d]thiazol-5-ylamino)quinolin-6-yl)-3-fluorophenyl)((3R,5S)-3,5-dimethylpiperazin-1-yl)methanone] | 0.0323 µM | 0.347 µM
Fc1cc(OC2CCNCC2)ccc1-c1ccc2nccc(Nc3ccc4scnc4c3)c2c1 [Compound 295, N-(6-(2-fluoro-4-(piperidin-4-yloxy)phenyl)quinolin-4-yl)benzo[d]thiazol-5-amine] | 0.147 µM | 0.781 µM
Cc1cc(-c2ccc3nccc(Nc4ccc5scnc5c4)c3c2)c(F)cc1C(=O)N1CCNCC1 [Compound 296, (4-(4-(benzo[d]thiazol-5-ylamino)quinolin-6-yl)-5-fluoro-2-methylphenyl)(piperazin-1-yl)methanone] | 0.0169 µM | 1.29 µM
Cc1cc(-c2ccc3c(Nc4ccc5scnc5c4)ccnc3c2)c(F)cc1C(=O)N1CCNCC1 [Compound 297, (4-(4-(benzo[d]thiazol-5-ylamino)quinolin-7-yl)-5-fluoro-2-methylphenyl)(piperazin-1-yl)methanone] | 0.174 µM | 0.282 µM
Fc1cc(CN2CC3CNCC3C2)ccc1-c1ccc2nccc(Nc3ccc4scnc4c3)c2c1 (centres unmarked) [Compound 299, N-(6-(2-fluoro-4-((hexahydropyrrolo[3,4-c]pyrrol-2(1H)-yl)methyl)phenyl)quinolin-4-yl)benzo[d]thiazol-5-amine] | 0.462 µM | 0.987 µM
Fc1cc(CN2CC3CNCC3C2)ccc1-c1ccc2c(Nc3ccc4scnc4c3)ccnc2c1 (centres unmarked) [Compound 300, N-(7-(2-fluoro-4-((hexahydropyrrolo[3,4-c]pyrrol-2(1H)-yl)methyl)phenyl)quinolin-4-yl)benzo[d]thiazol-5-amine] | 0.721 µM | 0.461 µM
O=C(c1ccc(-c2ccc3c(Nc4ccc5scnc5c4)ccnc3c2)c(F)c1)N1C[C@@H]2C[C@H]1CN2 [Compound 301, (4-(4-(benzo[d]thiazol-5-ylamino)quinolin-7-yl)-3-fluorophenyl)((1S,4S)-2,5-diazabicyclo[2.2.1]heptan-2-yl)methanone] | 0.197 µM | 0.427 µM
O=C(c1ccc(-c2ccc3c(Nc4ccc5scnc5c4)ccnc3c2)cc1F)N1CC2CNCC2C1 (centres unmarked) [Compound 303, (4-(4-(benzo[d]thiazol-5-ylamino)quinolin-7-yl)-2-fluorophenyl)(hexahydropyrrolo[3,4-c]pyrrol-2(1H)-yl)methanone] | 0.69 µM | 0.977 µM
O=C(c1ccc(-c2ccc3nccc(Nc4ccc5scnc5c4)c3c2)cc1F)N1CC2CNCC2C1 (centres unmarked) [Compound 305, (4-(4-(benzo[d]thiazol-5-ylamino)quinolin-6-yl)-2-fluorophenyl)(hexahydropyrrolo[3,4-c]pyrrol-2(1H)-yl)methanone] | 0.402 µM | > 10 µM
O=C(c1ccc(-c2ccc3nccc(Nc4ccc5scnc5c4)c3c2)c(F)c1)N1C[C@H]2CNC[C@H]2C1 [Compound 306, (4-(4-(benzo[d]thiazol-5-ylamino)quinolin-6-yl)-3-fluorophenyl)((3aR,6aS)-hexahydropyrrolo[3,4-c]pyrrol-2(1H)-yl)methanone] | 0.148 µM | < 10 µM
O=C(c1ccc(-c2ccc3c(Nc4ccc5scnc5c4)ccnc3c2)c(F)c1)N1C[C@H]2CNC[C@H]2C1 [Compound 307, (4-(4-(benzo[d]thiazol-5-ylamino)quinolin-7-yl)-3-fluorophenyl)((3aR,6aS)-hexahydropyrrolo[3,4-c]pyrrol-2(1H)-yl)methanone] | 0.271 µM | 0.774 µM
NC1CN(C(=O)c2ccc(-c3ccc4c(Nc5ccc6scnc6c5)ccnc4c3)c(F)c2)C1 [Compound 310, (3-aminoazetidin-1-yl)(4-(4-(benzo[d]thiazol-5-ylamino)quinolin-7-yl)-3-fluorophenyl)methanone] | 0.294 µM | 0.663 µM
Fc1cc(OC2CC3(CNC3)C2)ccc1-c1ccc2nccc(Nc3ccc4scnc4c3)c2c1 [Compound 311, N-(6-(4-(2-azaspiro[3.3]heptan-6-yloxy)-2-fluorophenyl)quinolin-4-yl)benzo[d]thiazol-5-amine] | 0.732 µM | 1.03 µM
O=C(c1ccc(-c2ccc3c(Nc4ccc5scnc5c4)ccnc3c2)c(Cl)c1)N1CC2(CNC2)C1 [Compound 312, (4-(4-(benzo[d]thiazol-5-ylamino)quinolin-7-yl)-3-chlorophenyl)(2,6-diazaspiro[3.3]heptan-2-yl)methanone] | 1.56 µM | 0.668 µM
O=C(c1ccc(-c2ccc3c(Nc4ccc5scnc5c4)ccnc3c2)c(F)c1)N1[C@@H]2CNC[C@H]1C2 [Compound 313, (4-(4-(benzo[d]thiazol-5-ylamino)quinolin-7-yl)-3-fluorophenyl)((1R,5S)-3,6-diazabicyclo[3.1.1]heptan-6-yl)methanone] | 0.302 µM | 0.402 µM
CN1CCN(C(=O)c2ccc(-c3ccc4nccc(Nc5ccc6scnc6c5)c4c3)c(F)c2)CC1(C)C [Compound 315, (4-(4-(benzo[d]thiazol-5-ylamino)quinolin-6-yl)-3-fluorophenyl)(3,3,4-trimethylpiperazin-1-yl)methanone] | 0.12 µM | 0.396 µM
Cn1ncc2cc(Nc3ccnc4ccc(-c5ccc(CN6CCNCC6)cc5F)cc34)ccc21 [Compound 388, 6-(2-fluoro-4-(piperazin-1-ylmethyl)phenyl)-N-(1-methyl-1H-indazol-5-yl)quinolin-4-amine] | – | > 10 µM
